Laboratory results published in patent US10676452B2, “Compound for the prophylaxis or treatment of organ damage” (Sulfateq B.V., priority 2015, dated 2020).
“Also recorded” adds a separate entry of the source.

Legend:
[1] = Solubility of SUL121 in 50% DMSO in saline solution; type: physicochemical; details: aqueous with cosolvent or surfactant or cyclodextrin, kinetic from dmso stock, read-out: solubility in 50% DMSO (completely soluble up to)
Protocol: (§1) Cell culture grade DMSO was obtained from Sigma-Aldrich (Zwijndrecht, the Netherlands). 0.9% sterile saline solutions were from Baxter (Utrecht, the Netherlands). (6-hydroxy-2,5,7,8-tetramethylchroman-2-yl)(piperazin-1-yl)methanone (SUL121) was supplied by Sulfateq BV, Groningen, the Netherlands supplied in a formulation of 500 mM in 100% DMSO corresponding to 177 g/l. Osmotic minipumps (Alzet, USA) are resistant to DMSO concentrations≤50%. Therefore, the solubility of SUL121 was tested in 50% DMSO in saline solution. SUL121 was completely soluble in 50% DMSO up to a concentration of 12.6 g/1. Alzet model 2004 pumps were loaded with 200 μl of 12.6 g/1 SUL121 solution or with 200 ul 50% DMSO solution (vehicle). According to pump specifications 6 μl of SUL121 was administered per day, resulting in a daily dose of 2.2 mg/kg/day for a 35 gram mouse.

[2] = system: db/db mice; test: Urinary albumin excretion and albumin/creatinine ratio; type: in vivo, mouse
Protocol: (§2) Male db/db mice (n=16) and lean heterozygous control animals (n=16) were purchased from Harlan UK (strain JAX000642). All mice were housed individually. Water and food were given ad-libitum. Four groups of mice were investigated: • 1) db/db+vehicle (diabetic control) • 2) db/db+Sul121 (treated diabetic group) • 3) wt+vehicle (non-diabetic control) • 4) wt+Sul121 (to study effect of drug only) Drug and vehicle were administered by implantation of osmotic minipumps at the age of 10 (t=0) and 14 weeks (t=4). Metabolic cages and blood pressure measurements were performed every two weeks. Blood samples could not be obtained by cheek puncture, therefore blood was collected from the retro orbital plexus at the age of 10 (t=0) and 12 weeks (t=2). At the age of 18 weeks (t=8) all animals were terminated and blood was collected by cardiac puncture. Urinary Measurements
(§3) Urinary glucose concentrations were measured by the glucose oxidase method with a specific electrode from 24-h urine collections after the samples were stored in −20° C. The urinary creatinine concentration was measured by standard laboratory methods (Jaffe method without deproteinization, DiaSys Diagnostic Systems, Holzheim, Germany). The median values of the 24-h urine collections and of the albumin-to-creatinine ratio were calculated. In addition, mouse albumin levels in urine were determined manually using a mouse albumin Elisa kit (Abcam, Cambridge, UK). Urinary hydrogen peroxide levels were determined using an Amplex Red H2O2 assay kit (Life technologies, Leusden, the Netherlands).
To test whether SUL 121 treatment could reduce renal damage, albumin leakage into the urine was measured at all time points for diabetic animals. Total albumin excretion per day (AER) was calculated by multiplying urinary albumin concentration with daily urinary output (FIG. 3A).

[3] = system: db/db mice; test: Renal histology: PAS staining, focal glomerulosclerosis (FGS) score; type: in vivo, mouse; details: diabetic mice
Source text: Four-micrometer-thick formalin fixed sections were deparaffinized and stained for periodic acid-Schiff (PAS) for quantification of focal glomerulosclerosis (FGS) and tubular injury. FGS was semiquantitatively scored in a blinded fashion by determining the level of mesangial expansion and focal adhesion in each quadrant in a glomerulus and expressed on a scale from 0 to 4. If 25% of the glomerulus was affected, it was scored as 1, 50% as 2, 75% as 3, and 100% as 4. In total, 50 glomeruli per kidney were analyzed, and the total FGS score was calculated by multiplying the score by the percentage of glomeruli with the same FGS score. Thus the total FGS score ranged from 0 to 200.

[4] = system: db/db mice; test: Plasma hydrogen peroxide (ROS production in diabetes); type: in vivo, mouse; details: diabetic mice
Protocol: as §3
Enhanced reactive oxygen species (ROS) production is a well-established phenomenon in diabetes. To study the effects of SUL121 treatment on ROS production, hydrogen peroxide, a stable metabolite of ROS, was measured in plasma (FIG. 6). SUL 121 treatment normalized H2O2 levels in plasma.

[5] = system: mouse aortic rings; test: Organ bath experiments with the isolated aorta of treated mice (ACh relaxation after PE precontraction); type: in vivo; details: for max. relaxation to ACh (remaining % of PE preconstriction): aortic rings
Protocol: Freshly isolated thoracic aortic rings (1.5-2 mm in length) were mounted on 200-μm stainless wires in individual myograph baths (Danish Myo Technology, Aarhus, Denmark). Briefly, baths containing 6 ml Krebs solution were warmed to 37° C. and preequilibrated and continuously aerated with 95% O2-5% CO2 to maintain pH at 7.4. The length of the aortic strips was assessed by microscopy. Aortic rings were equilibrated for 40 min until they were at a steady baseline. Rings were then primed and checked for viability by two consecutive stimulations with KCl (60 mM) followed by washings and renewed stabilization to obtain reproducible contractile responses.
Contraction responses were measured as cumulative concentration-response curves to phenylephrine (PE; 10 nM-100 μM) followed by a single concentration of KCl (90 mM). Endothelium-dependent relaxation was assessed by obtaining concentration-response curves to ACh (10 nM-300 μM) in rings precontracted with PE (1 μM) followed by stimulation with a high concentration of the NO donor sodium nitroprusside (SNP; 0.1 mM) to assess maximal endothelium-independent dilation.
To study the role of the endothelium in vasoconstrictor effects, rings were denuded by removing the endothelial cell layer by rubbing the luminal side of the vessel with a moistened wire. To examine the contribution of different EDRFs in modulating vasoconstrictor responses and mediating endothelium-dependent relaxation, inhibitors of PG and NO synthesis were used. To this end, PG components were assessed by preincubating rings (20 min.) with the nonspecific cyclooxygenase inhibitor indomethacin (10 μM). The NO component was examined by subsequent incubation with both NO synthesis inhibitor NG-monomethyl-L-arginine (L-NMMA; 1 μM) and indomethacin. The remaining ACh-mediated relaxation was attributed to an unidentified EDHF.
Contractions to KCl and PE are given in milliNewtons. Relaxation responses to ACh and SNP are expressed as percentages of the preconstriction with PE. In addition to that, the area under each individual curve (AUC; in arbitrary units) was determined for ACh-induced relaxation (SigmaPlot version 10.0, Systat Software, San Jose, Calif.). The AUC was used to present total endothelium-dependent relaxation and for the subsequent analysis of differences in ACh-mediated relaxation with and without inhibitors present to estimate the contribution of the different EDRFs, i.e., PGs for the part sensitive to cycloxygenase inhibition with indomethacin, NO for the part sensitive to NOS inhibition with L-NMMA, and EDHF by means of exclusion of PG and NO (34).

[6] = system: db/db mice; test: Organ (kidney) weights at termination; type: in vivo, mouse; details: diabetic mice, after 8 weeks of treatment
Protocol: as §2
After 8 weeks of treatment, mice were terminated and organ weights were measured (FIG. 2). […] SUL 121 treatment normalized kidney weights to non-diabetic control values.

[7] = system: mouse renal mesangial cells; test: In-vitro model of diabetes: intracellular ROS under high glucose and insulin; type: cell-based
Source text: To further explore the mechanisms through which SUL 121 mediates renal protection in diabetes, an in-vitro model of diabetes was employed. For this, mouse renal mesangial cells were exposed to conditions simulating type 2 diabetes (high glucose and insulin). Exposure to high glucose/insulin increased intracellular ROS levels by approximately 70% (FIG. 7).

[8] = system: db/db mice; test: Arterial blood pressure by tail-cuff method; type: in vivo, mouse
Protocol: as §2
Arterial blood pressure was measured in anaesthetized mice (2% isoflurane) by means of the tail-cuff method (PS-200A; Riken-Kaihatsu; Tokyo, Japan). For each animal, blood pressure values represent the mean of three to ten recordings obtained in a single session.

[9] = system: db/db mice; test: Metabolic data (body weight, water intake, urine output, non-fasting blood glucose) in db/db mouse Type 2 diabetes model; type: in vivo
Source text: Given its effectiveness in the model of renal ischemia and reperfusion, it was hypothesized that compound SUL 121 will also protect the kidney in an experimental model of obesity induced Type 2 diabetes (T2DM). Therefore, the effects of SUL121 on the development of albuminuria and renal damage in the mouse Type 2 diabetes model was studied. For the study, the db/db mouse model was employed. […] Diabetes starts at the age of 6-8 weeks and adequate levels of kidney damage and albuminuria can be observed at the age of 18 weeks.
To study the effects of SUL121 on the development of diabetes, treatment with SUL121 started from the age of 10 weeks until the age of 18 weeks. In addition, to study the effects of SUL 121 on healthy animals, control mice were treated similarly. A non-treated control group was included in the study, to serve as healthy untreated control. Drug and vehicle were administered by implantation of osmotic minipumps at the age of 10 and 14 weeks.
as §1, §2, §3

[10] = system: rat kidney; details: blood flow stopped and restored; cited from earlier work

Cc1c(C)c2c(c(C)c1O)CCC(C)(C(=O)N1CCNCC1)O2 (stereo not shown) [SUL121, (6-hydroxy-2,5,7,8-tetramethylchroman-2-yl)(piperazin-1-yl)methanone]
solubility [1]: ≥ 12.6 mg/mL | effect on total albumin excretion per day (AER) ([2]; diabetic animals, weeks 6 and 8): prevented the progression | albumin/creatinine ratio (ACR) ([2]; diabetic mice, week 6): 534 ± 79 µg/mg | albumin/creatinine ratio (ACR) ([2]; diabetic mice, week 8 (not statistically significant vs diabetic control)): 866 ± 91 µg/mg | effect on AER ([2]; non-diabetic animals): did not affect | total albumin excretion per day (AER) ([2]; non-diabetic animals, week 8): 31.3 ± 4.6 µg/day | albumin/creatinine ratio (ACR) ([2]; wild type animals, week 8): 55 ± 6 µg/mg | effect on focal glomerular sclerosis (FGS) scores [3]: significantly reduced | effect on focal glomerular sclerosis (FGS) scores ([3]; listed as SUL 121): significantly lowered | effect on plasma H2O2 levels [4]: normalized | effect on NO and prostaglandin components of relaxation ([5]; diabetic animals): non-significant (p=0.06) increase | effect on EDHF component of total relaxation ([5]; diabetic animals, with L-NMMA and indomethacin): significantly increasing | effect on endothelium mediated relaxation ([5]; diabetic mice): restores | max. relaxation to ACh (remaining % of PE preconstriction) ([5]; treated diabetic group): 11.3±2.3% | max. relaxation to ACh (remaining % of PE preconstriction) ([5]; treated non-diabetic controls): 9.2±1.6% | effect on kidney weights (kidney hypertrophy) [6]: normalized | effect on high glucose/insulin induced increase of intracellular ROS ([7]; cells pretreated, high glucose and insulin): substantially inhibited; also recorded: normalized | effect on intracellular ROS production, compound alone ([7]; without high glucose/insulin): did not affect | effect on blood pressure ([8]; diabetic mice): did not affect | effect on blood pressure ([8]; non-diabetic wild type mice, week 2): lowered | effect on blood pressure ([8]; week 6): did not affect | effect on urine output and water intake ([9]; all time points other than week 8): did not significantly affect | effect on blood glucose levels ([9]; diabetic db/db mice): did not affect | non-fasting blood glucose level ([9]; diabetic db/db mice, end of the experiment): 35.3 ± 1.1 mM | non-fasting blood glucose level ([9]; diabetic db/db mice, start of the experiment): 27.2 ± 1.3 mM | urine output ([9]; diabetic db/db mice, week 8): 11.2 ± 3.8 g | water intake ([9]; diabetic db/db mice, week 8): 10.9 ± 3.9 g | reduction of ischemia and reperfusion damage [10]: very effective
